Test results taken from patent US20230293629A1, “METHODS FOR ATTENUATING RELEASE OF INFLAMMATORY MEDIATORS AND PEPTIDES USEFUL THEREIN” (BIOMARCK PHARMACEUTICALS LTD., priority 2006, published 2023).
Where a SMILES comes first, the peptide text is derived from it. Where no end group is shown, it is not given here. [ ]: non-standard residue; d: D form. The star is where a group is joined. Myristoyl = CCCCCCCCCCCCCC(=O)*

Experiments:
[1] = test system: human neutrophils; experiment: PMA-stimulated MPO release from isolated human neutrophils (TMB assay); assay type: cell-based; details: 100 μM test peptide, two hour incubation with 100 nM PMA; human neutrophils
Source text: Human neutrophil isolation—These studies were approved by the human studies Institutional Review Board (IRB). Human neutrophils were isolated as previously described (see Takashi S, OkuboY, Horie S. Contribution of CD54 to human eosinophil and neutrophil superoxide production. J Appl Physiol 2001; 91:613-622) with slight modifications. Briefly, heparinized venous blood was obtained from normal healthy volunteers, diluted with RPMI-1640 (Cellgro; Mediatech, Inc., Herndon, VA) at a ratio of 1:1, layered onto a Histopaque (density, 1.077 g/ml; Sigma-Aldrich Co., St. Louis, MO) and centrifuged at 400 g for 20 min at 4° C. The supernatant and mononuclear cells at the interface were carefully removed, and erythrocytes in the sediment were lysed in chilled distilled water. Isolated granulocytes were washed twice with Hanks' balanced salts solution (HBSS) and resuspended in HBSS on ice.
Measurement of released neutrophil MPO activity—For measurement of MPO release, purified human neutrophils suspended in HBSS were aliquoted at 4×10^6 cells/ml in 15 ml tubes and preincubated with either 50 or 100 μM of MANS, RNS, or one of the peptides of invention for 10 min at 37° C. The cells then were stimulated with 100 nM phorbol 12-myristate 13-acetate (PMA) for up to 3 hrs. A control reference (PMA control reference) was established using purified human neutrophils suspended in HBSS aliquoted at 4×10^6 cells/ml in 15 mL tubes and stimulated with 100 nM phorbol 12-myristate 13-acetate (PMA) in the absence of a test peptide for the same time periods. The reaction was terminated by placing the tubes on ice and centrifugation at 400 g for 5 min at 4° C.
MPO activity in the cell supernatant was assayed using tetramethylbenzidine (TMB) based on a previously established technique (Abdel-Latif D, Steward M, Macdonald D L, Francis G A., Dinauer M C, Lacy P. Rac2 is critical for neutrophil primary granule exocytosis. Blood 2004; 104:832-839). Briefly, 100 μL of TMB substrate solution was added to 50 μL of cell supernatants or standard human MPO (EMD Biosciences, Inc., San Diego, CA) in a 96-well microplate followed by incubation at room temperature for 15 min. The reaction was terminated by addition of 50 μL of 1M […] and absorbance was read at 450 nm in a spectrophotometric microplate reader (VERSA max, Molecular Devices, Sunnyvale, CA).
The data presented in the table below represents 100 μM concentration of test peptides and a two hour incubation with 100 nM PMA.

[2] = test system: HL-60 clone 15 cells; experiment: PMA-stimulated EPO release from HL-60 clone 15 cells; assay type: cell-based, human; details: 50 μM test peptide, two hour incubation with 100 nM PMA; HL-60 clone 15 cells
Protocol: (§1) Three types of human leukocyte cell lines, specifically the promyelocytic cell line HL-60 clone 15, the monocytic cell line U937, and the lymphocyte natural killer cell line NK-92 were purchased from American Type Culture Collection (ATCC; Rockville, MD). HL-60 clone 15 cells (ATCC CRL-1964) were maintained in medium consisting of RPMI 1640 with L-glutamine supplemented with 10% heat-inactivated fetal bovine serum (Gibco; Invitrogen Co., Carlsbad, CA), 50 IU/ml penicillin, 50 μg/mL streptomycin, and 25 mM HEPES buffer, pH 7.8, at 37° C. in an atmosphere containing 5% CO2. Final differentiation to an eosinophil-like phenotype was initiated by culturing cells at 5×10^5 cells/ml in the above medium containing 0.5 mM butyric acid (Sigma-Aldrich Co.) for 5 days as previously described (Tiffany H L, Li F, Rosenberg H F. Hyperglycosylation of eosinophil ribonucleases in a promyelocytic leukemia cell line and in differentiated peripheral blood progenitor cells. J Leukoc Biol 1995; 58:49-54; Tiffany H L, Alkhatib G, Combadiere C, Berger E A, Murphy P M. CC chemokine receptors 1 and 3 are differentially regulated by IL-5 during maturation of eosinophilic HL-60 cells. J Immunol 1998; 160:1385-1392). U937 cells (ATCC CRL-1593.2) were grown at 37° C. in an atmosphere of 5% CO2 in complete medium consisting of RPMI 1640 with L-glutamine supplemented with 10% FBS, 50 IU/ml penicillin, and 50 μg/mL streptomycin. NK-92 cells (ATCC CRL-2407) were maintained in alpha-MEM medium (Sigma-Aldrich Co.) supplemented with 20% FBS, 100 U/ml of interleukin-2 (IL-2) (Chemicon International, Inc., Temecula, CA), 5×10^−5 M of 2-mercaptoethanol, 50 IU/mL penicillin, and 50 μg/ml streptomycin at 37° C. in an atmosphere containing 5% CO2. Cell morphology was judged by assessment of Wright-Giemsa-stained cells. Viability of cells harvested for experiments was assessed by trypan blue exclusion and populations of cells with viability >95% were used.
(§2) HL-60 clone 15, U937, and NK-92 cells were washed and resuspended at 2.5×10^6 cells/ml in phenol red-free RPMI-1640 (Cellgro; Mediatech, Inc.) for all degranulation assays. Aliquots of cells in 15 ml tubes were preincubated with indicated concentrations of MANS, RNS, or a test peptide for 10 min at 37° C. The cells then were stimulated with PMA for up to 2 hr. A control reference (PMA control reference) was established for each cell type using HL-60 clone 15, U937, and NK-92 cells, respectively, which were washed and resuspended at 2.5×10^6 cells/ml in phenol red-free RPMI-1640 and stimulated with PMA but in the absence of MANS, RNS, or a test peptide for the same time periods. The reaction was terminated by placing tubes on ice and centrifuging cells at 400 g for 5 min at 4° C.
(§3) For measurements of released MPO from neutrophils and released lysozyme from U937 cells, we were able to quantify secretion by using as standards human MPO and egg white […], respectively. For released EPO from HL-60 clone 15 cells and for released granzyme from NK-92 cells, no standards were available to use for quantification. […] To measure intracellular EPO in HL-60 clone 15 cells and intracellular granzyme in NK-92 cells, appropriate aliquots of 0.1% triton X-100-lysed cells were taken for quantification of intracellular granule proteins as described below. All treatments were expressed as percentage of control to minimize variability between cultures.
EPO activity released by HL-60 clone 15 cells was assayed using TMB according to a previously established technique (Lacy P, Mahmudi-Azer S, Bablitz B, Hagen S C, Velazquez J R, Man S F, Moqbel R. Rapid mobilization of intracellularly stored RANTES in response to interferon-gamma in human eosinophils. Blood 1999; 94:23-32). Thus, 100 μL of TMB substrate solution was added to 50 μL=microliters) of sample in a 96-well microplate and incubated at room temperature for 15 min (min=minutes). […]

[3] = test system: U937 cells; experiment: PMA-stimulated lysozyme secretion by U937 cells; assay type: cell-based, human; details: 50 μM test peptide, two hour incubation with 100 nM PMA; U937 cells
Protocol: as §1, §2, §3
Lysozyme secreted by U937 cells was measured using a spectrophotometric assay as described previously (Balboa M A, Saez Y, Balsinde J. Calcium-independent phospholipase A2 is required for lysozyme secretion in U937 promonocytes. J Immunol 2003; 170:5276-5280) with slight modification. Thus, 100 μL of sample was mixed with 100 μL of a Micrococcus lysodeikticus (Sigma-Aldrich Co.) suspension (0.3 mg/ml in 0.1 M sodium phosphate buffer, pH 7.0) in a 96-well microplate. The decrease in absorbance at 450 nm was measured at room temperature. […]

[4] = Qualitative solubility of peptides in 0.5 N saline, pH 6.5

Molecule | % Inhibition MPO [1] | % Inhibition EPO [2] | % Inhibition Lysozyme [3] | solubility [4]
Ac-GAQFSKTAAKGE-NH2 [Ac-GAQFSKTAAKGE-NH2, GAQFSKTAAKGE] | 26.5% | 24.7% | 38.6% | > 60 mg/mL
H-GAQFSKTAAKGE [peptide 79, GAQFSKTAAKGE] | 27.9% |  |  | 
CCCCCCCCCCCCCC(=O)N[C@@H](CO)C(=O)N[C@@H](CCCCN)C(=O)N[C@H](C(=O)N[C@@H](C)C(=O)N[C@@H](C)C(=O)N[C@@H](CCCCN)C(=O)NCC(=O)N[C@@H](CCC(=O)O)C(=O)N[C@@H](C)C(=O)N[C@@H](C)C(=O)N[C@@H](C)C(=O)N[C@@H](CCC(=O)O)C(=O)N[C@@H](CCCNC(=N)N)C(=O)N1CCC[C@H]1C(=O)NCC(=O)N[C@@H](CCC(=O)O)C(=O)N[C@@H](C)C(=O)N[C@@H](C)C(=O)N[C@H](C(=O)N[C@@H](C)C(=O)O)C(C)C)[C@@H](C)O (Myristoyl-SKTAAKGEAAAERPGEAAVA-OH; C-terminus assumed) |  | 0% | 99% | > 80 mg/mL
Ac-GAQFSKTAAKGE [Ac-GAQFSKTAAKGE, GAQFSKTAAKGE] |  | 46.7% | 43.3% | > 100 mg/mL
CCCCCCCCCCCCCC(=O)NCC(=O)N[C@@H](C)C(=O)N[C@@H](CCC(N)=O)C(=O)N[C@@H](Cc1ccccc1)C(=O)N[C@@H](CO)C(=O)N[C@@H](CCCCN)C(=O)N[C@H](C(=O)N[C@@H](C)C(=O)N[C@@H](C)C(=O)N[C@@H](CCCCN)C(=O)NCC(=O)N[C@@H](CCC(=O)O)C(=O)O)[C@@H](C)O [MA-GAQFSKTAAKGE, GAQFSKTAAKGE] (Myristoyl-GAQFSKTAAKGE-OH; C-terminus assumed) | 43.2% | 25.2% | 85.2% | > 2 mg/mL
CCCCCCCCCCCCCC(=O)N[C@@H](C)C(=O)N[C@@H](CCCCN)C(=O)NCC(=O)N[C@@H](CCC(=O)O)C(=O)N[C@@H](C)C(=O)N[C@@H](C)C(=O)N[C@@H](C)C(=O)N[C@@H](CCC(=O)O)C(=O)N[C@@H](CCCNC(=N)N)C(=O)N1CCC[C@H]1C(=O)NCC(=O)N[C@@H](CCC(=O)O)C(=O)N[C@@H](C)C(=O)N[C@@H](C)C(=O)N[C@H](C(=O)N[C@@H](C)C(=O)O)C(C)C [MA-AKGEAAAERPGEAAVA, AKGEAAAERPGEAAVA] (Myristoyl-AKGEAAAERPGEAAVA-OH; C-terminus assumed) |  | 18.1% | 98% | > 80 mg/mL
Ac-KTAAKGE-NH2 [Ac-KTAAKGE-NH2, KTAAKGE] |  | 0% | 24.3% | > 200 mg/mL
CC(=O)N[C@@H](C)C(=O)N[C@@H](C)C(=O)NCC(=O)N[C@@H](CCC(=O)O)C(=O)O [Ac-AAGE, AAGE] (Ac-AAGE-OH; C-terminus assumed) |  | 39.1% | 36.9% | > 200 mg/mL
CC(=O)NCC(=O)N[C@H](C)C(=O)N[C@H](CCC(N)=O)C(=O)N[C@H](Cc1ccccc1)C(=O)N[C@H](CO)C(=O)N[C@H](CCCCN)C(=O)N[C@@H](C(=O)N[C@H](C)C(=O)N[C@H](C)C(=O)N[C@H](CCCCN)C(=O)O)[C@H](C)O [Ac-GAQFSKTAAK (all d), GAQFSKTAAK (all d)] (Ac-G[dA][dQ][dF][dS][dK][dT][dA][dA][dK]-OH; C-terminus assumed) | 40.0% | 26.9% | 8.9% | > 100 mg/mL
Ac-GAQFSKTA [Ac-GAQFSKTA, GAQFSKTA] |  | 0% | 0% | > 200 mg/mL
Ac-SKTAAKGE-NH2 [Ac-SKTAAKGE-NH2, SKTAAKGE] |  | 42.2% | 0% | > 200 mg/mL
CCCCCCCCCCCCCC(=O)NCC(=O)N[C@@H](C)C(=O)N[C@@H](CCC(N)=O)C(=O)N[C@@H](Cc1ccccc1)C(=O)N[C@@H](CO)C(=O)N[C@@H](CCCCN)C(=O)N[C@H](C(=O)N[C@@H](CCCCN)C(=O)N[C@@H](C)C(=O)N[C@@H](CCCCN)C(=O)NCC(=O)N[C@@H](CCC(=O)O)C(=O)O)[C@@H](C)O [MA-GAQFSKTKAKGE, GAQFSKTKAKGE] (Myristoyl-GAQFSKTKAKGE-OH; C-terminus assumed) | 65.2% |  |  | > 3 mg/mL
Ac-GAQFSKTAAAGE [Ac-GAQFSKTAAAGE, GAQFSKTAAAGE] |  | 55.8% | 37.2% | > 50 mg/mL
